Data set [1] in a line: Partition coefficient in 1-octanol / phosphate buffer at pH 6.8. The note with it: octanol/water. It is filed as physicochemical.
For data set [2], the system named is CCRF-CEM. As to the kind of experiment: Effective concentration that causes 50 % inhibition of HIV-1 in CEM/0 cells, was determined. It is filed as functional, cell-based. To be noted: Homo sapiens.
Data set [3] has as its system CCRF-CEM. Kind of data set: Effective concentration that causes 50 % inhibition of HIV-2 in CEM/0 cells, was determined. The class given is functional, cell-based. To be noted: Homo sapiens.
Data set [4] concerns CCRF-CEM. Kind of data set: Effective concentration that causes 50 % inhibition of HIV-2 in CEM/TK- cells, was determined. The class given is functional, cell-based. To be noted: Homo sapiens.

By EC50 is commonly meant the concentration needed to bring the measured effect to its halfway point. The low end stands for a more potent agent, the high end for a less potent agent.

Values after ≈ are worked out from the molar mass of the structure shown.

In data set [1], `Cc1cn([C@H]2C=C[C@@H](CO)O2)c(=O)[nH]c1=O` [STAVUDINE] registered a PC of 0.15. For the same molecule, the EC50 in data set [2] was determined as 0.4 µg/mL (≈ 1.78 µM); in data set [3], 1.45 µg/mL (≈ 6.47 µM); in data set [4], 45 µg/mL (≈ 201 µM).

In data set [1], `Cc1cn([C@H]2C=C[C@@H](COP3(=O)OCc4cc([N+](=O)[O-])ccc4O3)O2)c(=O)[nH]c1=O` (some centres undefined) had a PC of 1.5. Moreover, the concentration giving a half-maximal response (EC50) worked out at 0.29 µg/mL (≈ 0.663 µM) in data set [2], 0.4 µg/mL (≈ 0.915 µM) in data set [3] and 40 µg/mL (≈ 91.5 µM) in data set [4].

In turn, `Cc1cn([C@H]2C=C[C@@H](COP3(=O)OCc4ccccc4O3)O2)c(=O)[nH]c1=O` (some centres undefined) yielded a PC in data set [1] of 1.9.

Regarding `Cc1cn([C@H]2C=C[C@@H](COP3(=O)OCc4cc(Cl)ccc4O3)O2)c(=O)[nH]c1=O` (some centres undefined), in data set [1], the PC is 7.7. The EC50 in data set [2] was determined as 0.18 µg/mL (≈ 0.422 µM); in data set [3], 0.25 µg/mL (≈ 0.586 µM); in data set [4] it was 20 µg/mL (≈ 46.9 µM).

Molecule `Cc1ccc2c(c1)COP(=O)(OC[C@@H]1C=C[C@H](n3cc(C)c(=O)[nH]c3=O)O1)O2` (some centres undefined) displayed a PC in data set [1] of 5.4.

The record behind these values is ChEMBL document CHEMBL1130570, “Cyclic saligenyl phosphotriesters of 2,3-dideoxy-2,3-didehydrothymidine (d4T) a new pro-nucleotide approach” (Bioorg Med Chem Lett, 1997).
